{"source": "patent US20170224764A1", "about": "“THERAPEUTIC TARGETING OF MITOCHONDRIA TO PREVENT OSTEOARTHRITIS” (Cornell University, priority 2016, published 2017)", "type_in_all_cases": "cell-based, bovids", "key": {"[1]": {"tested_on": "chondrocytes in cartilage explants", "test": "Apoptosis, activated caspase 3/7 staining of impacted cartilage explants", "conditions": "Example 6, 1 μM", "procedure": "(§1) Tissue harvest. Full thickness cartilage explants were harvested from the knee joints of healthy bovids (n=8 animals, 1-3 days of age) within 48 hours of sacrifice using an 8 mm biopsy punch. Specimens were rinsed in phosphate-buffered saline (PBS), trimmed to a uniform thickness of 3 mm from the articular surface using a custom jig, and placed in cartilage explant media (phenol free DMEM containing 1% FBS, HEPES 0.025 ml/ml, penicillin 100 U/mL, streptomycin 100 U/mL and 0.1 g/L glucose).\n(§2) Rapid impact injury model. Explants were subjected to injury using rapid-impact model or served as unimpacted controls (as described in Example 3). Briefly, explants were positioned in a well containing PBS under the plane-ended tip of a spring-loaded impacting device. The impactor was used to deliver a single, rapid cycle of unconfined axial compression (24.0±1.4 MPa peak stress; 53.8±5.3 GPa/s peak stress rate). Impact force was measured at 50 kHz by a load cell (PCBPiezotronics, Depew, N.Y.) attached to the impactor tip. Voltage from the load cell was recorded with a custom LabVIEW program (NI, Austin Tex.). The impact magnitude was adjusted by setting the deflection of the impactor's internal spring and mechanical parameters for each impact were calculated (as described in Example 3).\nD-Arg-2′,6′-Dmt-Lys-Phe-NH2 (SS-31) treatment. […]"}, "[2]": {"tested_on": "chondrocytes in cartilage explants", "test": "Chondrocyte viability, live/dead staining (calcein AM / ethidium homodimer) of impacted cartilage explants, confocal microscopy", "conditions": "1 μM", "procedure": "(§3) Cartilage was harvested from the knee joints of 4 neonatal bovids (n=30 explants). Cartilage explants were subjected to unconfined compression (24.0±1.4 MPa peak stress; 53.8±5.3 GPa/s peak stress rate) using a validated single-impact subcritical damage model.\n(§4) Cartilage explants were treated with 1 μM D-Arg-Dmt-Lys-Phe-NH2 (SS-31) immediately after injury (T0), one hour following injury (T1), or 6 hours after injury (T6), and then cultured for 7 days. Cartilage conditioned media (CCM) was sampled at T0, T1, T6, and every 24 hours after injury (T24-168) for 7 days.\n(§5) Explants were stained with calcein AM and ethidium homodimer (for live and dead cells, respectively) to assess chondrocyte viability at T24 and T168 using confocal microscopy. Live, dead and total cell numbers were quantified in z-stacked digital images using a custom ImageJ macro. To quantify cell membrane damage, CCM was analyzed using a colorimetric lactate dehydrogenase (LDH) activity assay, and cumulative cell membrane damage over the 7-day incubation period was determined for each explant.\nas §1, §2\nD-Arg-2′,6′-Dmt-Lys-Phe-NH2 (SS-31) treatment. Following injury, explants were cut perpendicular to the articular surface into 2 hemicylinders using a custom cutting jig to ensure uniform geometry. Cartilage was kept moist at all times and each cut was performed with a fresh (unused) and lubricated cutting instrument. Handling of the experimental tissues was strictly minimized at each step. Explants were placed directly into an individual well of a 24-well untreated tissue culture plate containing a known volume (1.5 ml) of cartilage explant media. Cartilage hemicylinders were randomly assigned to one of 10 treatment groups (n=6/group, FIG. 22). Injured (I) and uninjured control (C) explants in the non-treated groups (ITno, CTno) were placed into wells containing only media. Explants in the time zero treatment groups (IT0, CT0) were placed directly into media containing 1 μM D-Arg-2′,6′-Dmt-Lys-Phe-NH2(SS-31). Explants in the one-hour treatment groups (IT1, CT1) were placed into media only and D-Arg-2′,6′-Dmt-Lys-Phe-NH2(1 μM) was added to the wells 1 hour after impact. Explants in the six-hour treatment groups (IT6, CT6) were placed into media only and D-Arg-2′,6′-Dmt-Lys-Phe-NH2 (1 μM) was added 6 hours after impact. Explants in the twelve-hour treatment groups (IT12, CT12) were placed into media only and D-Arg-2′,6′-Dmt-Lys-Phe-NH2 (1 μM) was added 12 hours after impact. Explants were maintained under standard tissue culture conditions (36° C. and 21% O2) for 7 days. Medium was sampled at 1, 6, and 12 hours, and at 3, 5, and 7 days after impact, and stored at −80° C. until biochemical assays were performed. […]"}, "cartilage explants [3]": {"tested_on": "cartilage explants", "test": "Cartilage matrix degradation, GAG loss into the media by DMMB assay", "conditions": "1 μM", "procedure": "as §3\n[…] Cartilage conditioned media (CCM) was sampled at T0, T1, T6, and every 24 hours after injury (T24-168) for 7 days.\nCartilage matrix degradation was quantified by measuring GAG loss into the media via DMMB assay.\nas §1, §2\nD-Arg-2′,6′-Dmt-Lys-Phe-NH2 (SS-31) treatment. […] Cartilage was kept moist at all times and each cut was performed with a fresh (unused) and lubricated cutting instrument. Handling of the experimental tissues was strictly minimized at each step. Explants were placed directly into an individual well of a 24-well untreated tissue culture plate containing a known volume (1.5 ml) of cartilage explant media. Cartilage hemicylinders were randomly assigned to one of 10 treatment groups (n=6/group, FIG. 22). Injured (I) and uninjured control (C) explants in the non-treated groups (ITno, CTno) were placed into wells containing only media. […]\nCartilage GAG loss. To determine if D-Arg-2′,6′-Dmt-Lys-Phe-NH2 could provide structural protection after impact injury, the loss of glycosaminoglycan (GAG) was determined by routine 1,9-dimethyl-methylene blue dye binding (DMMB) assay. […] Total GAG content was read […], and expressed as the total GAG released into cartilage conditioned media over the culture period per μg dry weight of cartilage. […]"}, "cartilage explants [4]": {"tested_on": "cartilage explants", "test": "Cell membrane damage, lactate dehydrogenase (LDH) activity assay on cartilage conditioned media", "conditions": "1 μM", "procedure": "as §3, §4, §5, §1\nRapid impact injury model. Explants were subjected to injury using rapid-impact model or served as unimpacted controls (as described in Example 3). […] Impact force was measured at 50 kHz by a load cell (PCBPiezotronics, Depew, N.Y.) attached to the impactor tip. Voltage from the load cell was recorded with a custom LabVIEW program (NI, Austin Tex.). The impact magnitude was adjusted by setting the deflection of the impactor's internal spring and mechanical parameters for each impact were calculated (as described in Example 3). […]"}}, "note": "Entries after “also recorded” stand apart in the source; their conditions may differ.", "data": [{"substance": "D-Arg-2′,6′-Dmt-Lys-Phe-NH2", "values": [{"measurement": "impact-induced apoptosis (caspase 3/7 positive cells) at 1 day", "setting": "[1]; 1 day after cartilage injury, p=0.007", "value": "prevented impact-induced apoptosis; also recorded: equivalent to uninjured controls"}, {"measurement": "impact-induced apoptosis (caspase 3/7 positive cells) at 7 days", "setting": "[1]; 7 days after cartilage injury, p=0.04", "value": "prevented impact-induced apoptosis; also recorded: equivalent to uninjured controls"}, {"measurement": "chondrocyte death at 24 hours", "setting": "[2]; Example 2, treatment at 0, 1 or 6 hours after impact, versus untreated impacted cartilage", "value": "significantly reduced"}, {"measurement": "chondrocyte viability / death in injury+treatment groups compared with un-injured controls", "setting": "[2]; Example 6, day 1, treatment at 0, 1 or 6 hours", "value": "equivalent to uninjured controls"}, {"measurement": "reduction in impact-induced chondrocyte death, treated versus untreated explants", "setting": "[2]; Example 6, day 1, treatment at 0, 1 or 6 hours after impact", "value": "over 50%"}, {"measurement": "cell death at 1 day post-injury", "setting": "[2]; Example 6, injured groups treated at 0, 1 or 6 hours (IT0, IT1, IT6) versus untreated injured", "value": "potently reduced cell death; also recorded: effective at preventing chondrocyte death"}, {"measurement": "effect of treatment time on cell death", "setting": "[2]; Example 6, injury groups treated at 0, 1 or 6 hours, p=0.93", "value": "no effect of treatment time"}, {"measurement": "chondrocyte death (% dead cells) compared with untreated, injured controls", "setting": "[2]; Example 6, treatment at 0, 1, 6 or 12 hours after impact", "value": "reduced chondrocyte death; also recorded: reduced as compared to untreated, injured controls"}, {"measurement": "impact-induced cell death on day 7", "setting": "[2]; Example 6, treatment immediately, at 1 hour or at 6 hours after impact", "value": "prevented impact-induced cell death to a similar degree; also recorded: effective at preventing chondrocyte death"}, {"measurement": "impact-induced GAG loss into the media", "setting": "cartilage explants [3]; Example 2, treatment at 0, 1 or 6 hours after impact, 96 hr post impact", "value": "decreased GAG loss"}, {"measurement": "decrease of impact-induced GAG loss", "setting": "cartilage explants [3]; Example 6, cumulative GAG loss, p=0.002", "value": "~30", "unit": "%"}, {"measurement": "cartilage matrix degeneration (GAG loss into the media) compared with uninjured controls", "setting": "cartilage explants [3]; Example 6, treatment at 0, 1 or 6 hours after impact", "value": "equivalent to uninjured controls"}, {"measurement": "cartilage matrix degeneration (GAG loss into the media) compared with untreated, injured controls", "setting": "cartilage explants [3]; Example 6, treatment at 12 hours after impact", "value": "reduced cartilage matrix degeneration"}, {"measurement": "cumulative cell membrane damage (LDH activity) over the 7 days following injury", "setting": "cartilage explants [4]; Example 2, treated versus untreated impacted cartilage", "value": "prevents cell membrane damage; also recorded: lower in treated than untreated cartilage"}, {"measurement": "cumulative cell membrane damage, LDH activity in cartilage conditioned media over the 7 days following injury", "setting": "cartilage explants [4]; Example 6, injured, treated versus injured, untreated cartilage, p=0.0005", "value": "approximately twofold lower; also recorded: lower than injured, untreated explants"}, {"measurement": "cumulative LDH in uninjured controls", "setting": "cartilage explants [4]; Example 6, uninjured, treated versus untreated controls, p=0.05", "value": "lower cumulative LDH than untreated controls; also recorded: protective effect against cell membrane damage"}]}]}
